The target of test [1] is T1, phosphorylated EGFR (pEGFR) (Homo sapiens, UniProt P00533).
T1 construct: endogenous in cells; host or cells: A431
The test is described as follows: Detection of phosphorylated EGFR (pEGFR) in EGF-stimulated A431 cells (AlphaLISA). In kind it is cell-based. Particulars: A431 cells (10% FBS), 4 hours with compound, then EGF 30 ng/mL for 10 minutes.

Test [2] has as its target T2, BaF3 EGFR-H773 V774insNPH (Homo sapiens, UniProt P00533, DUP771-773, cells depend on it).
T2 construct: Ba/F3 cell lines were engineered to express human ERBB2 or EGFR kinases, rendering the cells IL-3 independent
The test is described as follows: Cell viability assay (CellTiter Glo). In kind it is cell-based, mouse. Particulars: 72 hours; 3000 cells per well, 96-well plates; read-out: Cell viability IC50, nM, BaF3 EGFR-H773 V774insNPH. Put shortly: (§1)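 Murine Ba/F3 cells made IL-3-independent by retroviral human EGFR or ERBB2 were seeded at 3000 or 300 cells per well and exposed to serially diluted compound (DMSO ≤0.1%) for 72 hours at 37° C, 5% CO2. CellTiter Glo luminescence was normalised to DMSO and media-only controls and fitted to a sigmoidal dose-response.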
In general terms: Cellular ATP, detected with luciferase, serves as a proxy for viable cell number.

Test [3] deals with T3, BaF3 EGFR-D770-N771insSVD (Homo sapiens, UniProt P00533, DUP768-770, cells depend on it).
T3 construct: Ba/F3 cell lines were engineered to express human ERBB2 or EGFR kinases, rendering the cells IL-3 independent
The test is described as follows: Cell viability assay (CellTiter Glo). In kind it is cell-based, mouse. As to conditions: 72 hours; 3000 cells per well, 96-well plates; read-out: Cell viability IC50, nM, BaF3 EGFR-D770-N771insSVD. Put shortly: as §1

Test [4] has as its target T4, BaF3-EGFR-V769 D770insASV (Homo sapiens, UniProt P00533, DUP767-769, cells depend on it).
T4 construct: Ba/F3 cell lines were engineered to express human ERBB2 or EGFR kinases, rendering the cells IL-3 independent
The test is described as follows: Cell viability assay (CellTiter Glo). It is filed as cell-based, mouse. Particulars: 72 hours; 3000 cells per well, 96-well plates; read-out: Cell viability IC50, nM, BaF3-EGFR-V769 D770insASV. Put shortly: as §1

These results are taken from patent publication US20230265098A1, “ALKYNE QUINAZOLINE DERIVATIVES AS INHIBITORS OF ERBB2” (EnLiven Therapeutics, Inc., priority 2020, published 2023).

Usually IC50 stands for the concentration that inhibits the measured activity by half.

T4 sequence (P00533 with tags, fused parts or gaps DUP767-769): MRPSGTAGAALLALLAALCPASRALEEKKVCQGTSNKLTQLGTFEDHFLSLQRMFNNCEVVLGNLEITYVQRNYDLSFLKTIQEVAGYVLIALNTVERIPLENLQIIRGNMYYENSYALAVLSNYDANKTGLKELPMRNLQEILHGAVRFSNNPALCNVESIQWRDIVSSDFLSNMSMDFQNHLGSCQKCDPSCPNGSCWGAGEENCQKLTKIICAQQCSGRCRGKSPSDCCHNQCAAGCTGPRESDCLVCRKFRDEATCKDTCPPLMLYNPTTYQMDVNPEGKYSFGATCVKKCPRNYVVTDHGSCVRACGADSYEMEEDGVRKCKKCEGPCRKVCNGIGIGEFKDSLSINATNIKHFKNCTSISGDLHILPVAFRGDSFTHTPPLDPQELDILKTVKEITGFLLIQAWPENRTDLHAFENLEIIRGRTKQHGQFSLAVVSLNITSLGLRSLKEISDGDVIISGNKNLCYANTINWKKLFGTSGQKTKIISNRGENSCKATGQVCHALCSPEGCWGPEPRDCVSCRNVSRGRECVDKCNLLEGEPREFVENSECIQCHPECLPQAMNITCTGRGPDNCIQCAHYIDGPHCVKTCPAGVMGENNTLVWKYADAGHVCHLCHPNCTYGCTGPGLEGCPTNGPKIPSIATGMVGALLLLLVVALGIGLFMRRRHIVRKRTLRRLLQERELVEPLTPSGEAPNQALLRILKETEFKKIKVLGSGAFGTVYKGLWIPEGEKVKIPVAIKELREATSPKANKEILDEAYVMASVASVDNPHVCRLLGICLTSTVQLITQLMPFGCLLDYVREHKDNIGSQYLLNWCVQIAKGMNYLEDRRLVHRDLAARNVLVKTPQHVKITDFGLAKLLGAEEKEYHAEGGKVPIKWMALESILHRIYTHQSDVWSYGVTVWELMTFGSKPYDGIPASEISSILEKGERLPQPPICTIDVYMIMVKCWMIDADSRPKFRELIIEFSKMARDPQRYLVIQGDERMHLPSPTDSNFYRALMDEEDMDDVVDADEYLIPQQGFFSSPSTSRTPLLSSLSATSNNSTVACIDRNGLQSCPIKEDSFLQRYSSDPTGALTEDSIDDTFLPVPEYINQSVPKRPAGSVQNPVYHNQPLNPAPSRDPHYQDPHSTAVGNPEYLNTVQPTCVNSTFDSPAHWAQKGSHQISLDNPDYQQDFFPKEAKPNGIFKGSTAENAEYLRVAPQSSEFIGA
T2 sequence (P00533 with tags, fused parts or gaps DUP771-773): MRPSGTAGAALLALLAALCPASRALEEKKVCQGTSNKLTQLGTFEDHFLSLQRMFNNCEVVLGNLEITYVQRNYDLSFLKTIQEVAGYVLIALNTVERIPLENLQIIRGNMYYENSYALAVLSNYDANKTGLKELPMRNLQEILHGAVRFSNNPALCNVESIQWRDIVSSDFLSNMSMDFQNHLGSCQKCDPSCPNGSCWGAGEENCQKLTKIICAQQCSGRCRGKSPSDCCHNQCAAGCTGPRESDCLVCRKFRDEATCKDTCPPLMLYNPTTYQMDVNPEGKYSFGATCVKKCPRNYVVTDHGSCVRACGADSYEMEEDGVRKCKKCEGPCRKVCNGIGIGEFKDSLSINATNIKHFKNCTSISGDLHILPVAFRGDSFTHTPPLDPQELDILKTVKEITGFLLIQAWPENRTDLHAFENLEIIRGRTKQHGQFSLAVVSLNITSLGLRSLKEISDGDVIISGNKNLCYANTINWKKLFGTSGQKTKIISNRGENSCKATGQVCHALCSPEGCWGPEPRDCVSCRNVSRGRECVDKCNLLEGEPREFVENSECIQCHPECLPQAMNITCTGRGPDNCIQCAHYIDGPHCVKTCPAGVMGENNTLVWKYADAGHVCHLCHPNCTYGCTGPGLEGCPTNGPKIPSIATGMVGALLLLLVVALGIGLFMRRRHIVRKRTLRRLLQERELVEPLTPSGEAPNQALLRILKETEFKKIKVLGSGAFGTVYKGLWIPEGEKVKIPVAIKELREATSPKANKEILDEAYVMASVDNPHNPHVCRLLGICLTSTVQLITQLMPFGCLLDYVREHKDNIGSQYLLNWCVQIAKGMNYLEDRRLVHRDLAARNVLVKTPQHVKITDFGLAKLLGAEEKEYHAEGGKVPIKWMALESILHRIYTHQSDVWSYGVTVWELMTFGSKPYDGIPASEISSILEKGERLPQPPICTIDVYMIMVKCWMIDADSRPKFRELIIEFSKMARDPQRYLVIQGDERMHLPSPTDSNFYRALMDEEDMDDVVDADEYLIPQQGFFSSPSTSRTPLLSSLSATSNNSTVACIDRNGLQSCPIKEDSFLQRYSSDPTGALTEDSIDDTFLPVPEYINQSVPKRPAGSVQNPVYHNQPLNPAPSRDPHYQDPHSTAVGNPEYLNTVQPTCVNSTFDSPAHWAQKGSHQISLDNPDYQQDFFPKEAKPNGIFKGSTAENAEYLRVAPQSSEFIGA
T1 sequence (P00533 25-1210): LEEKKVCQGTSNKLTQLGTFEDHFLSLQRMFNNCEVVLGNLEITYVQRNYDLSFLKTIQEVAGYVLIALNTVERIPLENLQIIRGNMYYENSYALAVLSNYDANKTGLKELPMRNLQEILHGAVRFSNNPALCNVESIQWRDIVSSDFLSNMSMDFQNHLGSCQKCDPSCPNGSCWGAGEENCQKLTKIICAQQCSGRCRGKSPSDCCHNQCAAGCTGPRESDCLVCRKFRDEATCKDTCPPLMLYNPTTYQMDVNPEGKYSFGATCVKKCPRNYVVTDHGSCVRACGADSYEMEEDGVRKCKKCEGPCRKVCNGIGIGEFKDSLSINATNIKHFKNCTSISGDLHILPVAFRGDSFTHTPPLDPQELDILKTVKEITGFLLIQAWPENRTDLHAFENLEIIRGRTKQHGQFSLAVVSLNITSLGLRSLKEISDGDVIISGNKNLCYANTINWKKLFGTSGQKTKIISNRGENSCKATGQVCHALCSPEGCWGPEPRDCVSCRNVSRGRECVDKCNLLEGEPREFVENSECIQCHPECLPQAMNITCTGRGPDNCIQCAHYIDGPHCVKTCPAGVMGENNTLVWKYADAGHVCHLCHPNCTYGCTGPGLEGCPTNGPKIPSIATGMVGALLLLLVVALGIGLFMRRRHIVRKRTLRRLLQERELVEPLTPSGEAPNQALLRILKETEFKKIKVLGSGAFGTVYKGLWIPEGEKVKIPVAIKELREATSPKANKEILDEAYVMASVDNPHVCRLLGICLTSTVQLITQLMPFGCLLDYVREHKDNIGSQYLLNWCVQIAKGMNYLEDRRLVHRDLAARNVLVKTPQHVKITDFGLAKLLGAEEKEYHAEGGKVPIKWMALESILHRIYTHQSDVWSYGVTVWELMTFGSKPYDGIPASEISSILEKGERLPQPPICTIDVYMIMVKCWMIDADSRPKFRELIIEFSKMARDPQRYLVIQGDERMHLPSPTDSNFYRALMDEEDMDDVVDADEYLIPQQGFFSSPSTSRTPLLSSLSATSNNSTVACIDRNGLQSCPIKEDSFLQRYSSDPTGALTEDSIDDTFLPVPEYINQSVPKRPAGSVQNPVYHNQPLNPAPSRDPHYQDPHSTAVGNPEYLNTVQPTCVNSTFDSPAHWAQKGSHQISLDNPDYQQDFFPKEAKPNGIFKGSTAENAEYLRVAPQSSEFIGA
T3 sequence (P00533 with tags, fused parts or gaps DUP768-770): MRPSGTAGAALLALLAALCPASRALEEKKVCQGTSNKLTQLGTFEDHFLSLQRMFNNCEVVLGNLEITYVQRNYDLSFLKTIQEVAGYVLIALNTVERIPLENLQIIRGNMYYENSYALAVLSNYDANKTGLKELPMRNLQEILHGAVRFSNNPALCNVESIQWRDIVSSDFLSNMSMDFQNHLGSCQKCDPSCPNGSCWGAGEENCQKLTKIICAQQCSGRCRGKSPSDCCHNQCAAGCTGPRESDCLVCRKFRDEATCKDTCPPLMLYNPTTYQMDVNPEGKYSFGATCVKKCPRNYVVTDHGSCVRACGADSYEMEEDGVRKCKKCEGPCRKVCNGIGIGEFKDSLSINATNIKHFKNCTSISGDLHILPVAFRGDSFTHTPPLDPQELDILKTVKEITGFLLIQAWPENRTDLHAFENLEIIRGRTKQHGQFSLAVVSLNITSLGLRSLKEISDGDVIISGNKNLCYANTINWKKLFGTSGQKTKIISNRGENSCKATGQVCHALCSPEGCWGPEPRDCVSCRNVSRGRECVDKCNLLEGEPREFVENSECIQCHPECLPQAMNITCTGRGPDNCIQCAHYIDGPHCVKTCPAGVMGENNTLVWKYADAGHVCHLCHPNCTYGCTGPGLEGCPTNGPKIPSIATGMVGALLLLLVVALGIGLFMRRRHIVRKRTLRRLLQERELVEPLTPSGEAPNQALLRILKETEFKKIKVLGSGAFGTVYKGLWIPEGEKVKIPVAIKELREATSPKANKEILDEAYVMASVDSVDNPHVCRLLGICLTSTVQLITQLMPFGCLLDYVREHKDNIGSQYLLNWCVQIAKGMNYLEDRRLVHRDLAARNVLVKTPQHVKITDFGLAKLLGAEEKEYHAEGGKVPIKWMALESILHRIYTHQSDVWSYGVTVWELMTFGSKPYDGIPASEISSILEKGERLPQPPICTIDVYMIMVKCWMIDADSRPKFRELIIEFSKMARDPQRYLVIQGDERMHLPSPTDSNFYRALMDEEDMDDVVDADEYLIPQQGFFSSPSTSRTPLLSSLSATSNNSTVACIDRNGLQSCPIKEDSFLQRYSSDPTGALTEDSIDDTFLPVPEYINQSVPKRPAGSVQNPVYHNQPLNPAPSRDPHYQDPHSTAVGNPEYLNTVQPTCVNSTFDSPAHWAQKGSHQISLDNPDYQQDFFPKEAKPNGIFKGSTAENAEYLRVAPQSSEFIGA

Regarding `CC#CC(=O)Nc1cc2c(Nc3ccc(Oc4ccn5ncnc5c4)c(C)c3)ncnc2cc1OCCN(C)C` [Compound 150, N-[7-[2-(dimethylamino)ethoxy]-4-[(3-methyl-4-[[1,2,4]triazolo[1,5-a]pyridin-7-yloxy]phenyl)amino]quinazolin-6-yl]but-2-ynamide], the IC50 in test [1] was found to be 233 nM.

Consider `CC#CC(=O)Nc1ccc2ncnc(Nc3ccc(Oc4ccn5ncnc5c4)c(C)c3)c2c1` [Compound 1, N-[4-[(3-methyl-4-[[1,2,4]triazolo[1,5-a]pyridin-7-yloxy]phenyl)amino]quinazolin-6-yl]but-2-ynamide], for which the results for the GI50 in test [2], in test [3] and in test [4] were > 1000 nM, 775 nM and 861 nM, respectively.
